Assay results from patent US20140017790A1, “CONTROL AGENT FOR CONTROLLING UNDIFFERENTIATED STATE AND USE THEREOF” (RIKEN, priority 2011, published 2014).

Columns and labels:
Assay type in all cases: cell-based
mouse iPS cells = test: siRNA knockdown and quantitative RT-PCR in mouse iPS cells
Description: A PrimeScript RT-PCR Kit (trade name, TAKARA BIO INC.), an ABI 7500 Fast real time PCR system (trade name, Applied BioSystems), and a SYBR (registered trademark) Premix Ex Taq (trade name, TAKARA BIO INC.) were used in accordance with their protocols. PCR was carried out by conducting 40 cycles of treatment with a treatment at 94° C. for 5 second and at 62.5° C. for 20 seconds as 1 cycle. The expression level of each gene was calculated by normalizing the relative amount of mRNA in the gene to Gapdh mRNA according to the 2^−ΔΔ^CT method (Thomse R, Solvsten C A, Linnet T E, et al., Analysis of qPCR data by converting exponentially related Ct values into linearly related XO values. J Bioinform Comput Biol 2010: 8: 885-900.). […]
The Stealth siRNA was added so that the final concentration thereof per well was […]. Then, 24 hours after the transfection, total RNAs were extracted, and the expression levels of the undifferentiated marker genes and the Ccl2 gene in the mouse iPS cells were determined by the quantitative RT-PCR.
Also, as a negative control, the mouse iPS cells were subjected to transfection in the same manner as in the above, except that Stealth siRNA (trade name: Stealth RNAi (registered trademark) Negative Control Medium GC, Duplex-catalog number 12935-300, Invitrogen) was used, and the expressions of the undifferentiated marker genes were measured (n=3). […]

human iPS cells [1] = test: phase-contrast morphology of human iPS cells with JAK or PI3K inhibitor; details: 6 days
Description: As a JAK inhibitor, a JAK inhibitor I (Merck) was used. As PI3K inhibitor, the same LY294002 as used in Example 4 was used. Human iPS cells were cultured for 6 days under feeder conditions in the same manner as in the above item (1), except that not only the CCL2 but also the JAK inhibitor or the PI3K inhibitor further was added to the medium. In the medium, the concentration of the Jak inhibitor was set to 10 ng/ml, and the concentration of the PI3K inhibitor was set to 5 ng/ml.
Furthermore, as a control, the cells were cultured in the same manner as in the above using the following media, respectively: a medium containing bFGF instead of the CCL2 and containing DMSO (5 ng/ml) instead of the inhibitor; and a medium containing bFGF (5 ng/ml) instead of the CCL2 and containing the inhibitor.
The phase-contrast micrographs show the results obtained under the conditions of, from the above: the inhibitor not added (DMSO added); the JAK inhibitor added; and the PI3K inhibitor added.

human iPS cells [2] = test: EB formation and spontaneous differentiation, cell morphology; details: third day from the plating; iPS cells precultured 6 days with the substance
Description: Human iPS cells were cultured for 6 days under feeder conditions in the same manner as in Example 7. Thereafter, embryonic bodies (EBs) were produced. EB formation is known as a spontaneous differentiation-inducing method for inducing the differentiation of iPS cells. Specifically, first, a ROCK inhibitor (Y-27632, WAKO) was added to the culture solution being used for the culture of the human iPS cells so that the concentration thereof was […], and the human iPS cells were cultured for 1 hour under the conditions of 37° C. and 5% CO2. Then, the feeder cells used for the culture were dissociated with a human ES/iPS cell dissociation solution (CTK solution), and the human iPS cells were collected. Then, 1×10^6 of the human iPS cells were seeded in an ultra-low adhesion culture vessel, and cultured for 6 days in an EB preparation medium (DMEM/F12, Knockout SR, L-glutamine, NEAA (non-essential amino acid (GIBCO)), 2-ME, Pen/Strep). The medium was replaced every two days.
Next, spontaneous differentiation was induced. Specifically, the produced EBs were seeded in gelatin coated dishes so that each gelatin coated dish contained one EB. Each EB was cultured for 14 days in a medium (DMEM) containing 20% FBS, and then observed with a microscope. The medium was replaced every two days. The photographs in FIG. 18 show the cell morphology on the third day from the plating.

human iPS cells [3] = test: differentiation of EBs to myocardial cells, morphology and Tropomyosin immunostaining; details: 10th day from the plating; CCL2(+)/LIF(+) or CCL2(-)/bFGF(+) 5 ng/ml
From the text: It has been reported that, in general, according to the spontaneous differentiation-inducing method used in the above item (1), differentiation into myocardial cells is more liable to occur. Thus, regarding the cells on the 10th day from the plating in the above item (1), differentiation into myocardial cells was examined.
The morphology of the cells was examined with a microscope. Furthermore, they were immunostained with a Tropomyosin, which is a marker for myocardial cells. Also, culture of the cells, observation of the morphology, and staining were carried out in the same manner as in the above using a medium to which bFGF (5 ng/ml) has been added instead of the CCL2 and LIF.
The photographs in FIG. 19 show the morphologies of the cells on the 10th day from the plating of EB. […] Furthermore, in FIGS. 19A and 19B, the photographs on the left show the cell morphologies, and the photographs on the right show the stained cells. In the black and white photographs of FIG. 19, the stained portions are seen as light gray.

human iPS cells [4] = test: culture of human iPS cells in feeder free media, EB plating, cell adhesion; details: LIF not added, CCL2 500 ng/ml alone or bFGF 5 ng/ml alone
From the text: As undifferentiated cells, the same human iPS cells as used in Example 7 were used. As CCL2, the mouse recombinant CCL2 used in the item (1) of Example 2 was used. As feeder free media, the following three kinds of media were provided by adding or not adding the CCL2, LIF and bFGF to the medium for human stem cells used in Example 8. Specifically, the media used were as follows: the medium with CCL2 not added (−)/LIF not added (−)/bFGF added (+); the medium with CCL2 added (+)/LIF not added (−)/bFGF not added (−); and the medium with CCL2 added (+)/LIF added (+)/bFGF not added (−). In each medium, the concentration of the LIF was set to 50 units/ml, the concentration of the CCL2 was set to 500 ng/ml, and the concentration of the bFGF was set to 5 ng/ml. Then, the human iPS cells were cultured for 6 days using each medium, and EBs were produced. Thereafter, the thus-produced EBs were seeded in gelatin coated dishes so that each gelatin coated dish contained one EB, and cultured for 5 days in a medium (DMEM) containing 20% FBS.
The photographs in FIG. 20 show the cell morphologies of the EBs on the 5th day from the plating.

human iPS cells [5] = test: quantitative RT-PCR of undifferentiated marker genes in human iPS cells under feeder conditions; details: CCL2 500 ng/ml, 6 days, relative to bFGF 5 ng/ml
Description: A PrimeScript RT-PCR Kit (trade name, TAKARA BIO INC.), an ABI 7500 Fast real time PCR system (trade name, Applied BioSystems), and a SYBR (registered trademark) Premix Ex Taq (trade name, TAKARA BIO INC.) were used in accordance with their protocols. PCR was carried out by conducting 40 cycles of treatment with a treatment at 94° C. for 5 second and at 62.5° C. for 20 seconds as 1 cycle. The expression level of each gene was calculated by normalizing the relative amount of mRNA in the gene to Gapdh mRNA according to the 2^−ΔΔ^CT method (Thomse R, Solvsten C A, Linnet T E, et al., Analysis of qPCR data by converting exponentially related Ct values into linearly related XO values. J Bioinform Comput Biol 2010: 8: 885-900.).
The human iPS cells were used as undifferentiated cells, and human recombinant CCL2 (137-13011, WAKO, SEQ ID NO: 1) was used as the CCL2. The medium used was a medium for human stem cells (trade name “Primate ES medium”, ReproCELL Incorporated). To this medium, LIF was not added, and the CCL2 was added. The concentration of the CCL2 in the medium was set to 500 ng/ml. Under the above-described feeder conditions, the human iPS cells were cultured on the feeder cells SNL76/7 that produce LIF in the above-described medium. Then, 6 days after the start of the culture, the feeder cells were removed, and total RNAs were collected from the cultured human iPS cells. The undifferentiated marker genes were then subjected to the quantitative RT-PCR.
Also, as a negative control, the human iPS cells were cultured under the feeder conditions and the undifferentiated marker genes were subjected to quantitative RT-PCR in the same manner as in the above, except that bFGF (derived from human, WAKO) was added instead of the CCL2 so that the concentration thereof was 5 ng/ml. Thereafter, assuming that the expression level in the comparative example was 1, the relative value with respect to this value was calculated as the fold change in expression level.

## siRNA against the Ccl2 gene: Stealth siRNA (Invitrogen), sequence SEQ ID NO: 7 CAUUCACCAGCAAGAUGAUCCCAAU (commercial Stealth siRNA, chemistry not given here)
Mouse iPS cells; 24 hours after transfection, relative to negative control siRNA
  expressions of the undifferentiated marker genes (Klf4, Tbx3) after knockdown of the Ccl2 gene: decreased markedly

## siRNA against the Klf4 gene: Stealth siRNA (Invitrogen), sequence SEQ ID NO: 8 CAAGUUUGUGCUGAAGGCGUCUCUG (commercial Stealth siRNA, chemistry not given here)
Mouse iPS cells; 24 hours, relative to negative control
  expression of the Tbx3 gene after knockdown of the Klf4 gene: decreased markedly

## bFGF: bFGF (derived from human, WAKO), added instead of the CCL2 as negative control
Human iPS cells [1]; inhibitor not added (DMSO added), bFGF(+)/CCL2(-) or bFGF(-)/CCL2(+)
  undifferentiation potency, cell morphology: most of the cells maintained the undifferentiation potency, but some of the cells were differentiated
Human iPS cells [2]
  morphology of EB after spontaneous differentiation-inducing culture: epithelial cell-like morphology
Human iPS cells [3]
  cell morphology of EBs, differentiation into myocardial cells: most of them were epithelial cell-like cells
  staining with Tropomyosin (marker for myocardial cells): not stained
Human iPS cells [4]
  cell adhesion: not observed

## CC(C)(C)c1nc2c3cc[nH]c(=O)c3c3cc(F)ccc3c2[nH]1 [Jak inhibitor, reference compound]
Human iPS cells [1]; Jak inhibitor 10 ng/ml, both bFGF(+)/CCL2(-) and bFGF(-)/CCL2(+)
  undifferentiation potency, cell morphology: all the cells had been differentiated and many dead cells were observed

## human recombinant CCL2: human recombinant CCL2 (137-13011, WAKO, SEQ ID NO: 1)
Human iPS cells [5]
  expression of the KLF4 gene, fold change: about two-fold
  expression of the Nanog gene, fold change: about two-fold
  expression of the REX1 gene, fold change: about two-fold
  expression of the STELLA gene, fold change: about two-fold
